Measurements from patent US20050282818A1, “Ubiquitin ligase inhibitors” (Rigel Pharmaceuticals, Inc., priority 2004, published 2005).
pIC50: −log10 of the molar value.

Assays:
[1] = target: T1, TRAF6/Uev1A/Ubc13 (Homo sapiens, UniProt Q9Y4K3); experiment: TRAF6/Uev1A/Ubc13 plate-based ubiquitin ligase assay; assay type: biochemical
T1 sequence (Q9Y4K3 1-522): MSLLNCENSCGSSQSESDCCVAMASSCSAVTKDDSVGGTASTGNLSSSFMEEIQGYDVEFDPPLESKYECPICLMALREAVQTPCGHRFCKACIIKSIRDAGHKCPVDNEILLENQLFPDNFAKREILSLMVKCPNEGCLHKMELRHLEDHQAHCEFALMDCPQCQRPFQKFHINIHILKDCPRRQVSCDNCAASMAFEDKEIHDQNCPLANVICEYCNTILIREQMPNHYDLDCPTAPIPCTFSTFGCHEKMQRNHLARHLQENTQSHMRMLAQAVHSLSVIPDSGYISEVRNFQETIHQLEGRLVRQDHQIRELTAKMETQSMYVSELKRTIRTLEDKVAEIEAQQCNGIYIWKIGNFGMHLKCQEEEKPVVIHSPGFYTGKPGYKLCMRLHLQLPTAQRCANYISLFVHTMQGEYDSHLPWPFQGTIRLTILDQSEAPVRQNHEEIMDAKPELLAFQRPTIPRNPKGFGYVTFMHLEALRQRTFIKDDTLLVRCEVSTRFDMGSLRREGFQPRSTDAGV
Outline: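 Ligase activity was read as luminescence from anti-Flag/HRP detection of Flag-ubiquitin bound to casein-blocked Ni-plates alongside His-ubiquitin after a 1 h room-temperature reaction. Buffer: 62.5 mM Tris pH 7.5, 6.25 mM MgCl2, 1.0 mM DTT, 2 μM ATP; E1, Uev1a/Ubc13 and TRAF6 added last to start. IC50s derived across compound concentrations.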

[2] = system: H1299 cells; experiment: Cell proliferation PAD assay, H1299; assay type: cell-based; settings: Homo sapiens, NCI-H1299, 6pt, 48 hours, read-out: H1299 6pt
Outline: (§1)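 Plate 2,000 cells per well, then add compound after 24 h as duplicate 6.3-fold dilutions, with 10 mM master stock diluted 500-fold on transfer. Grow 48 h at 37 °C in 5% CO2, fix with formamide, stain nuclei with DAPI, and count cells by imaging.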

[3] = system: A549 cells; experiment: Cell proliferation PAD assay, A549; assay type: cell-based; settings: Homo sapiens, 6pt, 48 hours, read-out: A549 6pt
Outline: as §1

`COc1cc(Nc2ccc(S(=O)(=O)Nc3cc(OC)c(Cl)cc3OC)c3nonc23)c(OC)cc1Cl` [compound 342, N-(4-chloro-2,5-dimethoxyphenyl)-7-([4-chloro-2,5-dimethoxyphenyl]amino)-2,1,3-benzoxadiazole-4-sulfonamide] gave a pIC50 [1] of 4.70 to 6.00, a pIC50 [2] greater than 6.00 and a pIC50 [3] of 4.70 to 6.00.

`COc1cc(NS(=O)(=O)c2c(Cl)ccc3nonc23)c(OC)cc1Cl` [compound 343, 5-chloro-N-(4-chloro-2,5-dimethoxyphenyl)-2,1,3-benzoxadiazole-4-sulfonamide] showed a pIC50 [1] of no more than 4.70, a pIC50 [2] of 4.70 to 6.00 and a pIC50 [3] of 4.70 to 6.00.

Work on `COc1cc(Nc2ccc3nonc3c2S(=O)(=O)Nc2cc(OC)c(Cl)cc2OC)c(OC)cc1Cl` [compound 344, N-(4-chloro-2,5-dimethoxyphenyl)-5-([4-chloro-2,5-dimethoxyphenyl]amino)-2,1,3-benzoxadiazole-4-sulfonamide] yielded a pIC50 [1] of no more than 4.70, a pIC50 [2] of no more than 4.70 and a pIC50 [3] of no more than 4.70.
